This is an account of results in the SangsterLogP compilation.

The structures appear in SMILES notation.

As usually defined, the logD is the decadic logarithm of the distribution of all forms, ionised or not, between an organic phase and buffer at a given pH.

This data set is described as follows: method code SF-AS, from PMID: 744242. Particulars: pH 5.6.
`NC(=O)CCCn1nc2ccccc2n1`: the logD worked out at 0.78. Take `CCOC(=O)CCCCCn1nnc2ccccc21`: the logD came to 2.68. For `CC(C)n1nnc2ccccc21`, the logD is 1.98.

For `CCOC(=O)CCCn1nnc2ccccc21`, the logD came out at 1.86. Next, `CC(C)n1nc2ccccc2n1`: 2.54.

Take `CCCn1nnc2ccccc21`: the logD stood at 2.13. Regarding `CCCCn1nnc2ccccc21`, the logD was found to be 2.57.

With `CCCC(C)n1nc2ccccc2n1` (stereo not drawn), the logD is 3.42. `CCCn1nc2ccccc2n1` came in with a pH-dependent lipophilicity (logD) of 2.53. `CCCCn1nc2ccccc2n1` showed a logD of 3.12. `CCCCC(C)n1nnc2ccccc21` (stereo not drawn) had a logD of 3.44.

As for `CCC(C)n1nc2ccccc2n1` (stereo not drawn), the logD stood at 2.95. As to `CCCCC(C)n1nc2ccccc2n1` (stereo not drawn), the logD is 3.78. `NC(=O)Cn1nc2ccccc2n1`: the logD stood at 0.28.

The molecule `CCOC(=O)CCn1nc2ccccc2n1` returned a logD of 2.12.

In turn, `OCCCn1nc2ccccc2n1` yielded a logD of 1.4. Molecule `NC(=O)CCn1nc2ccccc2n1` yielded a logD of 0.66. For the molecule `CCOC(=O)CCCCCn1nc2ccccc2n1`, the logD was 3.17. As to `Cn1nnc2ccccc21`, the logD was 1.13. The molecule `CCCCCCn1nnc2ccccc21` came in with a logD of 3.7. The figure for `CCOC(=O)CCCCn1nc2ccccc2n1` is 2.85; for `CCCC(C)n1nnc2ccccc21` (stereo not drawn) it is 2.95; for `CCC(C)n1nnc2ccccc21` (stereo not drawn) it is 2.31. `Cn1nc2ccccc2n1` returned a logD of 1.64. For `CCn1nnc2ccccc21`, the logD was 1.58. The logD values of the last two molecules are within 0.2 log units of each other. In the case of `CCOC(=O)CCn1nnc2ccccc21`, the logD came out at 1.6.

On to `CCn1nc2ccccc2n1`, for which the logD turned out to be 2.1. As for `CCCCCCn1nc2ccccc2n1`, the logD came to 4.24. Next, `NC(=O)Cn1nnc2ccccc21`: -0.11. Take `CCOC(=O)CCCn1nc2ccccc2n1`: the logD is 2.41.

For `OCCCn1nnc2ccccc21`, the logD worked out at 0.91.

`NC(=O)CCCCCn1nc2ccccc2n1`: the logD amounted to 1.41. Next, `NC(=O)CCCn1nnc2ccccc21`: 0.37. Next, `CCOC(=O)CCCCn1nnc2ccccc21`: 2.2; `CCOC(=O)Cn1nnc2ccccc21`: 1.3; `OCCn1nnc2ccccc21`: 0.5. In the case of `CCCCCn1nnc2ccccc21`, the logD turned out to be 3.22. Turning to `NC(=O)CCCCCn1nnc2ccccc21`, the logD came out at 0.79. Take `CCOC(=O)Cn1nc2ccccc2n1`: the logD is 1.85. Regarding `OCCn1nc2ccccc2n1`, the logD came out at 0.92.

`CCCCCn1nc2ccccc2n1` displayed a logD of 3.63. `NC(=O)CCCCn1nc2ccccc2n1` gave a logD of 1.01. As for `NC(=O)CCCCn1nnc2ccccc21`, the logD was determined as 0.58.
